Reference: ChEMBL document CHEMBL2073880, “Heterologous expression of various P-glycoproteins in polarized epithelial cells induces directional transport of small (type 1) and bulky (type 2) cationic drugs” (J Pharmacol Exp Ther, 1998)

Columns and labels:
Assay type in all cases: functional, cell-based
[1] = target: T1, ATP-dependent translocase ABCB1 (Mus musculus, UniProt P21447); experiment: TP_TRANSPORTER: transepithelial transport (basal to apical) in Mdr1a-expressing LLC-PK1 cells; details: pig
[2] = target: T2, ATP-dependent translocase ABCB1 (Homo sapiens, UniProt P08183); experiment: TP_TRANSPORTER: transepithelial transport (basal to apical) in MDR1-expressing LLC-PK1 cells; details: pig
[3] = target: T3, ATP-dependent translocase ABCB1 (Mus musculus, UniProt P06795); experiment: TP_TRANSPORTER: transepithelial transport (basal to apical) in Mdr1b-expressing LLC-PK1 cells; details: pig
[4] = target: T3, ATP-dependent translocase ABCB1; experiment: TP_TRANSPORTER: inhibition of TBuMA transepithelial transport (basal to apical)(TBuMA: 10 uM, Vinblastine: 2 uM) in Mdr1b-expressing LLC-PK1 cells; details: pig, llc-pk1, 2 µM
[5] = target: T2, ATP-dependent translocase ABCB1; experiment: TP_TRANSPORTER: inhibition of TBuMA transepithelial transport (basal to apical)(TBuMA: 10 uM, Vinblastine: 2 uM) in MDR1-expressing LLC-PK1 cells; details: pig, llc-pk1, 2 µM
[6] = target: T1, ATP-dependent translocase ABCB1; experiment: TP_TRANSPORTER: inhibition of TBuMA transepithelial transport (basal to apical)(TBuMA: 10 uM, Vinblastine: 2 uM) in Mdr1a-expressing LLC-PK1 cells; details: pig, llc-pk1, 2 µM

T2 sequence (P08183 whole entry): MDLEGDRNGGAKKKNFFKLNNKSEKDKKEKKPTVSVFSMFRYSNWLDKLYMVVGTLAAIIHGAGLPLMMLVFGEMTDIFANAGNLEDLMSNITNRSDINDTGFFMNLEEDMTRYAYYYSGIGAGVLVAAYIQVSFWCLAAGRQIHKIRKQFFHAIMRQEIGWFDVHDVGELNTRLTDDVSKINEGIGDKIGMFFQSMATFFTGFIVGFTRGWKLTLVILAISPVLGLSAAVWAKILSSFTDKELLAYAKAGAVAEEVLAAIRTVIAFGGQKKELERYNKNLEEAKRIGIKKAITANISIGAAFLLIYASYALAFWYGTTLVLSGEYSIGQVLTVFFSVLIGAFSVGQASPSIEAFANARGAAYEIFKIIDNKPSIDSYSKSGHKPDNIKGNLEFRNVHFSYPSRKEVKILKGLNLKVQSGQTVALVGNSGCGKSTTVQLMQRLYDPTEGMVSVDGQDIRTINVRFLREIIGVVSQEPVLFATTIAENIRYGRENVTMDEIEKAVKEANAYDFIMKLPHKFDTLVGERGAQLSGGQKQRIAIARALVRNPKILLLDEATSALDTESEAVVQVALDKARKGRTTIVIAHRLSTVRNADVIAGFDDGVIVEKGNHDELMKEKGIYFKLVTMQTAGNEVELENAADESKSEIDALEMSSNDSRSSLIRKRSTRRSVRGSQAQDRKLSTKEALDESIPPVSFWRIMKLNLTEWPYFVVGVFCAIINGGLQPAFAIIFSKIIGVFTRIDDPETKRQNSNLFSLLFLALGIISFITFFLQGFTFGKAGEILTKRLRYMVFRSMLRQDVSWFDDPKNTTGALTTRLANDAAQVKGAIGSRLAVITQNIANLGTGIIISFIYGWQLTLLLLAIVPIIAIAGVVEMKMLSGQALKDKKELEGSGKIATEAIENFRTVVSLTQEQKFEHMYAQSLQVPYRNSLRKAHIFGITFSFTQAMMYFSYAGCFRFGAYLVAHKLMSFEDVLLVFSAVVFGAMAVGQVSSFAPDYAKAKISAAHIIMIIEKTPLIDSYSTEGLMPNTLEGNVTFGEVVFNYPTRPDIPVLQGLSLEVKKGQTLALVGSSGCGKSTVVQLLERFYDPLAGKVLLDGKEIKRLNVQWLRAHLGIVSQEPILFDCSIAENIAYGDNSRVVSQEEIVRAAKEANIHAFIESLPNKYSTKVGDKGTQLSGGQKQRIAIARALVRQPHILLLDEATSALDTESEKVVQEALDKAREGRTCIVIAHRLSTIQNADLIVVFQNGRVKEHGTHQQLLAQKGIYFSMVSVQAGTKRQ
T1 sequence (P21447 whole entry): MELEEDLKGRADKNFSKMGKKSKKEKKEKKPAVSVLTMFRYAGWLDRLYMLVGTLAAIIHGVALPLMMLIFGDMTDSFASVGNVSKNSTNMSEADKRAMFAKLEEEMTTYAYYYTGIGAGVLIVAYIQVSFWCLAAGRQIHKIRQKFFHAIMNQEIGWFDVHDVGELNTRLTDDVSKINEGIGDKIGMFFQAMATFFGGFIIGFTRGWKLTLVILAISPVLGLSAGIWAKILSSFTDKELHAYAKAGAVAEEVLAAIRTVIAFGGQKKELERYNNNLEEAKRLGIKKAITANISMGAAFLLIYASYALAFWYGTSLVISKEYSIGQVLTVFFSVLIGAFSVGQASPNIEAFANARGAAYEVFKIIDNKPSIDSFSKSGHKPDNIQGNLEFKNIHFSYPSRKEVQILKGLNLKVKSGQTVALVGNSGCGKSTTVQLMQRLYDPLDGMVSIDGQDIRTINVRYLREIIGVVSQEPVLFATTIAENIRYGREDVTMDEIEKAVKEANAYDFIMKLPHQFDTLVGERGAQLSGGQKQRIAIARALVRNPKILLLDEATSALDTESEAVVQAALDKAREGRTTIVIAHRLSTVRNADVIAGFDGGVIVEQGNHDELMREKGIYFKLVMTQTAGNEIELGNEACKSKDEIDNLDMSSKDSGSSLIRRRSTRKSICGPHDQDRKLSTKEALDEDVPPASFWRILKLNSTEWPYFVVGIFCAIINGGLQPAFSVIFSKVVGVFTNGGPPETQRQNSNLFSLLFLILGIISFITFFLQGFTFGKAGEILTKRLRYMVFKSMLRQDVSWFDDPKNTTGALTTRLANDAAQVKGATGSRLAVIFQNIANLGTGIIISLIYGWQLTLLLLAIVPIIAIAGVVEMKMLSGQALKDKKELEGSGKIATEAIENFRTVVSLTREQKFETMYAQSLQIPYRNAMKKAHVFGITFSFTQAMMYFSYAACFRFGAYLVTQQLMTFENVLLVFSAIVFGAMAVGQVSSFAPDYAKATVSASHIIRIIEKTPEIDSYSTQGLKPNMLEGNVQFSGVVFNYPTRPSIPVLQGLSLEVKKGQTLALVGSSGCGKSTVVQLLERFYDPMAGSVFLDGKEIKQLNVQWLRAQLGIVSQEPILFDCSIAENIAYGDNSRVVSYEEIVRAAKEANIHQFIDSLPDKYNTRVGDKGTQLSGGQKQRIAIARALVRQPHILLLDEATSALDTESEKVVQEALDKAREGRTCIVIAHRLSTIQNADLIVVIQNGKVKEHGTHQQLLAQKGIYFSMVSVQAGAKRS
T3 sequence (P06795 whole entry): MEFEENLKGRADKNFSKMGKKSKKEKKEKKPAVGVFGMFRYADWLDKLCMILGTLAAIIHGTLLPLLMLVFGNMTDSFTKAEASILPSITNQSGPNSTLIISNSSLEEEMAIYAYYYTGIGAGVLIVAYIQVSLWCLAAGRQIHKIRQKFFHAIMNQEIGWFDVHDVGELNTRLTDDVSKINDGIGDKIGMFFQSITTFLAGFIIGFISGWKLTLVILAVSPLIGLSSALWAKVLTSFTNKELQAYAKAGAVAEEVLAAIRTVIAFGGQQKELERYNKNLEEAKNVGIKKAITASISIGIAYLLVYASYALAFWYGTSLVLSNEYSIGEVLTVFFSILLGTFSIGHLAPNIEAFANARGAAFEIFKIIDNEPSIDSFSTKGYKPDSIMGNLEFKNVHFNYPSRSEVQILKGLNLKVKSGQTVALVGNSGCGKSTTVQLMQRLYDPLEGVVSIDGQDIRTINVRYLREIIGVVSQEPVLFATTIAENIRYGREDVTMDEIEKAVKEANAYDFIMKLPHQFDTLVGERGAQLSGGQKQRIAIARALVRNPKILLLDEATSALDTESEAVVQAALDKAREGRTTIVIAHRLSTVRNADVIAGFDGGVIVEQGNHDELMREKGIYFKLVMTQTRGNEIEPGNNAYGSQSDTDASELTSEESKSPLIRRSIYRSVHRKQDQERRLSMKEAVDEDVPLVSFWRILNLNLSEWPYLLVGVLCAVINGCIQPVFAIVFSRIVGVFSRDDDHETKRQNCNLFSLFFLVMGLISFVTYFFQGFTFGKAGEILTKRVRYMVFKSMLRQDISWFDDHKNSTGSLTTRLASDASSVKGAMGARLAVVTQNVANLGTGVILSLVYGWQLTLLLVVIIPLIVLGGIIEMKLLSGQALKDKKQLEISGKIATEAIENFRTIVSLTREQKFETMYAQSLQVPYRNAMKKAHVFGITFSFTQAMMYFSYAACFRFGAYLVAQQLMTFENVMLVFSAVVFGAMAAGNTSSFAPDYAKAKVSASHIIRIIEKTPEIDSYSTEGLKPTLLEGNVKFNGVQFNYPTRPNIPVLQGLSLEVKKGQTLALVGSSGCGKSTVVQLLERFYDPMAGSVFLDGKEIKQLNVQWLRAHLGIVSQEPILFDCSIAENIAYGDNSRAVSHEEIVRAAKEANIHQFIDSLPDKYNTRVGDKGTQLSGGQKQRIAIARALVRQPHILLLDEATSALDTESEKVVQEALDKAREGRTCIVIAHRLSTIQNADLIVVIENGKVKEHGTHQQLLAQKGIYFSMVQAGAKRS

Structure (SMILES) | Activity [1] | Activity [2] | Activity [3] | Activity [4] | Activity [5] | Activity [6]
CC[N+](C)(CC)CCNC(=O)c1ccc(N=[N+]=[N-])cc1.[I-] [AZIDOPROCAINAMIDE METHOIODIDE] | substrate [+] | substrate [+] |  |  |  | 
CCCC[N+](C)(CCCC)CCCC [TRIBUTYLMETHYLAMMONIUM] | substrate [+] | substrate [+] | substrate [+] |  |  | 
CC(=O)O[C@H]1C[C@@H]2CC[C@@H]3[C@H](CC[C@@]4(C)[C@H]3C[C@H]([N+]3(C)CCCCC3)[C@@H]4OC(C)=O)[C@@]2(C)C[C@@H]1N1CCCCC1 [VECURONIUM] | substrate [+] | substrate [+] | substrate [+] |  |  | 
CC[C@]1(O)C[C@@H]2CN(CCc3c([nH]c4ccccc34)[C@@](C(=O)OC)(c3cc4c(cc3OC)N(C)[C@H]3[C@@](O)(C(=O)OC)[C@H](OC(C)=O)[C@]5(CC)C=CCN6CC[C@]43[C@@H]65)C2)C1 [VINBLASTINE] | substrate [+] |  | substrate [+] | inhibitor [+] | inhibitor [+] | inhibitor [+]
